Test [1] deals with T1, Enoyl-[acyl-carrier-protein] reductase [NADPH] FabI (Staphylococcus aureus) (UniProt Q6GI75).
T1 sequence (whole entry): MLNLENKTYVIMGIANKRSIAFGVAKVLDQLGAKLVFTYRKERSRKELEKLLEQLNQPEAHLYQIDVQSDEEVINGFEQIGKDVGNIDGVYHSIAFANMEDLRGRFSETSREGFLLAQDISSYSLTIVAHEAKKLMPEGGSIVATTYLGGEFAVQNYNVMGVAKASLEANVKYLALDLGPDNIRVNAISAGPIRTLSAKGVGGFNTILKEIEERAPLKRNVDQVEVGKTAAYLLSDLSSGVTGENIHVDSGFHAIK
Nature of the test: Inhibition of N-terminal his 6 tagged Staphylococcus aureus Fabi (1 to […] residues) expressed in Escherichia coli BL21 at 10 uM incubated for 30 mins in presence of NADPH by fluorescence based microplate reader analysis relative to control.

For test [2], the target named is T1, Enoyl-[acyl-carrier-protein] reductase [NADPH] FabI (Staphylococcus aureus). Nature of the test: Inhibition of N-terminal his 6 tagged Staphylococcus aureus Fabi (1 to […] residues) expressed in Escherichia coli BL21 at 1 uM incubated for 30 mins in presence of NADPH by fluorescence based microplate reader analysis relative to control.
For test [3], the system named is Staphylococcus aureus. Nature of the test: Antimicrobial activity against […] Staphylococcus aureus ATCC33591 measured after 24 hrs by CLSI protocol based microdilution method. Format: functional. Background: Broth dilution looks for growth in wells or tubes with falling amounts of substance.
Test [4] concerns Staphylococcus aureus. Nature of the test: Antimicrobial activity against […] Staphylococcus aureus ATCC43300 measured after 24 hrs by CLSI protocol based microdilution method. Format: functional.
Test [5] deals with Staphylococcus aureus. Nature of the test: Antimicrobial activity against […] Staphylococcus aureus USA300 measured after 24 hrs by CLSI protocol based microdilution method. Format: functional.
In test [6] the test system is Staphylococcus aureus. Nature of the test: Antimicrobial activity against […] Staphylococcus aureus NRS271 measured after 24 hrs by CLSI protocol based microdilution method. Format: functional.
The subject of test [7] is Staphylococcus aureus. Nature of the test: Antimicrobial activity against methicillin-susceptible Staphylococcus aureus ATCC29213 measured after 24 hrs by CLSI protocol based microdilution method. Format: functional.
For test [8], the system named is Staphylococcus aureus. Nature of the test: Antimicrobial activity against methicillin-susceptible Staphylococcus aureus ATCC25923 measured after 24 hrs by CLSI protocol based microdilution method. Format: functional.
For a further test, the system named is Enterococcus faecium. Nature of the test: Antimicrobial activity against Enterococcus faecium ATCC19434 measured after 24 hrs by CLSI protocol based microdilution method. Format: functional.
A further test has as its system Enterococcus faecalis. Nature of the test: Antimicrobial activity against Enterococcus faecalis ATCC29212 measured after 24 hrs by CLSI protocol based microdilution method. Format: functional.
For another test, the system named is Pseudomonas aeruginosa. Nature of the test: Antimicrobial activity against Pseudomonas aeruginosa PAO1 measured after 24 hrs by CLSI protocol based microdilution method. Format: functional.
Another test relates to Escherichia coli. Nature of the test: Antimicrobial activity against Escherichia coli ATCC25922 measured after 24 hrs by CLSI protocol based microdilution method. Format: functional.
Another test relates to Acinetobacter baumannii. Nature of the test: Antimicrobial activity against Acinetobacter baumannii ATCC19606 measured after 24 hrs by CLSI protocol based microdilution method. Format: functional.
A further test has as its system Candida albicans. Nature of the test: Antimicrobial activity against Candida albicans SC5314 measured after 48 hrs by CLSI protocol based microdilution method. Format: functional.

Molecules are shown by their SMILES. ≈ marks a conversion by molar mass, not a printed value. Where only a bound is given, the exact number is not on record here.

`COc1ccc(N2CC(c3nc4ccccc4n3C)CC2=O)cc1OC` (stereo unspecified): the inhibition (commonly how much of the control response was suppressed) in test [1] was found to be 22.5%; in test [2] it was 1.6%. Further, the MIC in the test with Staphylococcus aureus [3], in the test on Staphylococcus aureus [4], in the test on Staphylococcus aureus [5], against Staphylococcus aureus [6], in the test with Staphylococcus aureus [7] and against Staphylococcus aureus [8] was > 32 µg/mL each time. Moreover, the MIC against Enterococcus faecium, in the test with Enterococcus faecalis, against Pseudomonas aeruginosa, against Escherichia coli, in the test with Acinetobacter baumannii and with Candida albicans was > 32 µg/mL throughout.
As to `Cn1c(C2CC(=O)N(Cc3ccccc3)C2)nc2ccccc21` (stereo unspecified), the inhibition in test [1] came out at 27.9%; in test [2], 4.6%. Also, the MIC against Staphylococcus aureus [3], against Staphylococcus aureus [4], with Staphylococcus aureus [5], against Staphylococcus aureus [6], against Staphylococcus aureus [7] and in the test with Staphylococcus aureus [8] was > 32 µg/mL each time. In addition, the MIC in the test with Enterococcus faecium, in the test on Enterococcus faecalis, against Pseudomonas aeruginosa, in the test on Escherichia coli, in the test on Acinetobacter baumannii and in the test with Candida albicans was > 32 µg/mL in each case.
Regarding `Cn1c(C2CC(=O)N(c3ccc4ncsc4c3)C2)nc2ccccc21` (stereo unspecified), the inhibition came out at 43.4% in test [1] and 4.1% in test [2]. In addition, the MIC in the test on Staphylococcus aureus [3], in the test on Staphylococcus aureus [4], against Staphylococcus aureus [5], against Staphylococcus aureus [6], in the test with Staphylococcus aureus [7] and against Staphylococcus aureus [8] was > 32 µg/mL throughout. Besides, the MIC in the test on Enterococcus faecium, in the test with Enterococcus faecalis, in the test on Pseudomonas aeruginosa, against Escherichia coli, in the test on Acinetobacter baumannii and against Candida albicans was > 32 µg/mL each time.
Take `Cn1c(C2CC(=O)N(c3ccc(Cl)cc3)C2)nc2ccccc21` (stereo unspecified): the values for the inhibition in test [1] and in test [2] were 35.7% and 2.2%, respectively. In addition, the MIC in the test with Staphylococcus aureus [3], against Staphylococcus aureus [4], in the test on Staphylococcus aureus [5], against Staphylococcus aureus [6], with Staphylococcus aureus [7] and in the test with Staphylococcus aureus [8] was > 32 µg/mL in each case. Also, the MIC against Enterococcus faecium, with Enterococcus faecalis, against Pseudomonas aeruginosa, in the test on Escherichia coli, against Acinetobacter baumannii and in the test with Candida albicans was > 32 µg/mL each time.
As to `Cn1c(CCC(=O)NCCC(=O)NCc2ccccc2)nc2ccccc21`, the results for the inhibition in [1] and in [2] were 24.7% and 7.5%, respectively. In addition, the MIC against Staphylococcus aureus [3], against Staphylococcus aureus [4], with Staphylococcus aureus [5], in the test on Staphylococcus aureus [6], against Staphylococcus aureus [7] and in the test with Staphylococcus aureus [8] was > 32 µg/mL throughout. Moreover, the MIC in the test with Enterococcus faecium, against Enterococcus faecalis, against Pseudomonas aeruginosa, against Escherichia coli, in the test with Acinetobacter baumannii and against Candida albicans was > 32 µg/mL each time.
As for `CC(=O)c1ccc(N2CC(c3nc4ccccc4n3C)CC2=O)cc1Cl` (stereo unspecified), the inhibition stood at 3.8% in test [1] and 5.5% in test [2]. Also, the MIC against Staphylococcus aureus [3], in the test on Staphylococcus aureus [4], in the test on Staphylococcus aureus [5], with Staphylococcus aureus [6], in the test on Staphylococcus aureus [7] and with Staphylococcus aureus [8] was > 32 µg/mL throughout. Further, the MIC with Enterococcus faecium, in the test with Enterococcus faecalis, in the test on Pseudomonas aeruginosa, in the test on Escherichia coli, against Acinetobacter baumannii and in the test on Candida albicans was > 32 µg/mL each time.
`COCCCOc1ccc(C)c(C[S+]([O-])c2nc3ccccc3[nH]2)n1` (stereo unspecified): in test [1], the inhibition is > 70%.
With `O=C1CC(c2nc3ccccc3[nH]2)CN1c1cccc2ccccc12` (stereo unspecified), the results for the inhibition in test [1] and in test [2] were 15.4% and 3.2%, respectively. The MIC against Staphylococcus aureus [3], against Staphylococcus aureus [4], against Staphylococcus aureus [5], against Staphylococcus aureus [6], in the test on Staphylococcus aureus [7] and against Staphylococcus aureus [8] was > 32 µg/mL throughout. The minimum inhibitory concentration (MIC) in the test on Enterococcus faecium, against Enterococcus faecalis, in the test with Pseudomonas aeruginosa, with Escherichia coli, against Acinetobacter baumannii and against Candida albicans was > 32 µg/mL throughout.
Take `Cn1c(C2CC(=O)N(c3noc4ccccc34)C2)nc2ccccc21` (stereo unspecified): the values for the inhibition in [1] and in test [2] were 11.6% and 2.5%, respectively. The MIC against Staphylococcus aureus [3], in the test on Staphylococcus aureus [4], against Staphylococcus aureus [5], with Staphylococcus aureus [6], against Staphylococcus aureus [7] and against Staphylococcus aureus [8] was > 32 µg/mL each time. Further, the MIC against Enterococcus faecium, in the test with Enterococcus faecalis, against Pseudomonas aeruginosa, with Escherichia coli, with Acinetobacter baumannii and with Candida albicans was > 32 µg/mL in each case.
Regarding `CN(C)c1ccc2nc3c(C(=O)O)cc(O)c(O)c3[o+]c2c1`, the inhibition in test [1] was > 70%.
`Cc1cccc(NC(=O)CCNC(=O)CCc2nc3ccccc3n2C)c1C`: the inhibition in test [1] was determined as 33.2%; in test [2], 6.9%. Moreover, the minimal inhibitory concentration (MIC) with Staphylococcus aureus [3], in the test with Staphylococcus aureus [4], in the test with Staphylococcus aureus [5], in the test on Staphylococcus aureus [6], with Staphylococcus aureus [7] and in the test on Staphylococcus aureus [8] was > 32 µg/mL throughout. Moreover, the MIC against Enterococcus faecium, against Enterococcus faecalis, with Pseudomonas aeruginosa, with Escherichia coli, against Acinetobacter baumannii and in the test with Candida albicans was > 32 µg/mL in each case.
Turning to `COc1cccc(OC)c1C(=O)N[C@@H]1C(=O)N2[C@@H]1SC(C)(C)[C@@H]2C(=O)O` [METHICILLIN], the MIC – broadly, the lowest concentration that inhibits growth of the organism – against Staphylococcus aureus [3] was > 32 µg/mL; against Staphylococcus aureus [4] it was > 32 µg/mL; with Staphylococcus aureus [5], > 32 µg/mL; with Staphylococcus aureus [6], > 32 µg/mL; in the test on Staphylococcus aureus [7] it was 2 µg/mL (≈ 5.26 µM); with Staphylococcus aureus [8], 2 µg/mL (≈ 5.26 µM).
Regarding `Cc1cccc(NC(=O)CCNC(=O)c2nc3ccccc3n2C)c1C`, the inhibition in test [1] is 6.6%; in test [2], 4.8%. Moreover, the MIC with Staphylococcus aureus [3], in the test with Staphylococcus aureus [4], in the test on Staphylococcus aureus [5], with Staphylococcus aureus [6], against Staphylococcus aureus [7] and against Staphylococcus aureus [8] was > 32 µg/mL in each case. The MIC against Enterococcus faecium, in the test with Enterococcus faecalis, in the test on Pseudomonas aeruginosa, in the test on Escherichia coli, against Acinetobacter baumannii and in the test on Candida albicans was > 32 µg/mL throughout.
In the case of `O=c1sn(-c2cccc3ccccc23)c(=O)n1Cc1ccccc1`, in test [1], the inhibition is > 70%.
For `Cc1cccc(NC(=O)c2cccc(NC(=O)c3nc4ccccc4n3C)c2)c1C`, the inhibition in test [1] stood at 5%; in test [2], 3.7%. The MIC in the test on Staphylococcus aureus [3], against Staphylococcus aureus [4], in the test with Staphylococcus aureus [5], with Staphylococcus aureus [6], in the test with Staphylococcus aureus [7] and in the test on Staphylococcus aureus [8] was > 32 µg/mL each time. Moreover, the MIC against Enterococcus faecium, in the test on Enterococcus faecalis, in the test with Pseudomonas aeruginosa, in the test on Escherichia coli, in the test on Acinetobacter baumannii and against Candida albicans was > 32 µg/mL throughout.
Consider `O=C1CC(c2nc3ccccc3[nH]2)CN1c1cccc(Cl)c1F` (stereo unspecified), for which the values for the inhibition in test [1] and in test [2] were 16.9% and 1.7%, respectively. The minimum inhibitory concentration (MIC) with Staphylococcus aureus [3], against Staphylococcus aureus [4], with Staphylococcus aureus [5], in the test on Staphylococcus aureus [6], with Staphylococcus aureus [7] and with Enterococcus faecium was > 32 µg/mL in each case. Further, the MIC against Enterococcus faecalis, against Pseudomonas aeruginosa, against Escherichia coli, with Acinetobacter baumannii and against Candida albicans was > 32 µg/mL each time.
Take `Cc1c(Br)cccc1N1C[C@H](c2nc3ccccc3n2C)CC1=O`: the MIC in the test on Staphylococcus aureus [3], in the test on Staphylococcus aureus [4], in the test with Staphylococcus aureus [5], in the test on Staphylococcus aureus [6], against Staphylococcus aureus [7] and in the test with Staphylococcus aureus [8] was > 32 µg/mL each time.
`Oc1ccc2ccccc2c1SSc1c(O)ccc2ccccc12`: the inhibition in [1] was > 70%.
As for `O=C1C=CC(=O)c2ccccc21`, the inhibition in [1] is > 70%.
As to `CCCCCC/C=C/CCCCCCCc1cccc(O)c1C(=O)O`, the inhibition in [1] was > 70%.
For `O=C(N/N=C/c1cc(O)c(O)cc1O)c1cc2ccccc2cc1O`, the inhibition in test [1] is > 70%.

For the origin of these results see ChEMBL document CHEMBL5500393, “Discovery and Optimization of Novel SaFabI Inhibitors as Specific Therapeutic Agents for MRSA Infection” (J Med Chem, 2024).
